From US9133148B2, “Carbamate compounds and of making and using same” (Abide Therapeutics, Inc., priority 2012, dated 2015)

Key:
FAAH = FAAH (Mus musculus (Mouse), UniProt O08914); assay: In vitro competitive activity-based protein profiling (FP-Rh), mouse FAAH; type: biochemical; details: mouse brain membrane proteome
Method: (§1) In Vitro Competitive Activity-Based Protein Profiling.
(§2) Proteomes (mouse brain membrane fraction or cell lysates) ([…], 1.0 mg/mL total protein concentration) were preincubated with varying concentrations of inhibitors at 37° C. After 30 min, FP-Rh (1.0 μL, 50 μM in DMSO) was added and the mixture was incubated for another 30 min at 37° C. Reactions were quenched with SDS loading buffer (50 μL—4×) and run on SDS-PAGE.

MAGL = MAGL (Mus musculus (Mouse), UniProt O35678); assay: In vitro competitive activity-based protein profiling (FP-Rh), mouse MAGL; type: biochemical; details: mouse brain membrane proteome, competitive ABPP (Table 7)
Chain of MAGL (O35678 whole entry): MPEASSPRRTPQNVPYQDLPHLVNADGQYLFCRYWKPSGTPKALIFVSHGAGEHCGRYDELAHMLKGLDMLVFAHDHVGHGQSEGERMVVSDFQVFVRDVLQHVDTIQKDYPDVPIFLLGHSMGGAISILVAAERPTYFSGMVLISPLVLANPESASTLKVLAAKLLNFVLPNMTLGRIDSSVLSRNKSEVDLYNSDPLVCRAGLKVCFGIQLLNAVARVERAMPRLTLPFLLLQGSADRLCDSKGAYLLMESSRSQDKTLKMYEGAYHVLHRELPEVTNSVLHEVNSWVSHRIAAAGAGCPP
Method: as §1, §2

Chain of FAAH (O08914 whole entry): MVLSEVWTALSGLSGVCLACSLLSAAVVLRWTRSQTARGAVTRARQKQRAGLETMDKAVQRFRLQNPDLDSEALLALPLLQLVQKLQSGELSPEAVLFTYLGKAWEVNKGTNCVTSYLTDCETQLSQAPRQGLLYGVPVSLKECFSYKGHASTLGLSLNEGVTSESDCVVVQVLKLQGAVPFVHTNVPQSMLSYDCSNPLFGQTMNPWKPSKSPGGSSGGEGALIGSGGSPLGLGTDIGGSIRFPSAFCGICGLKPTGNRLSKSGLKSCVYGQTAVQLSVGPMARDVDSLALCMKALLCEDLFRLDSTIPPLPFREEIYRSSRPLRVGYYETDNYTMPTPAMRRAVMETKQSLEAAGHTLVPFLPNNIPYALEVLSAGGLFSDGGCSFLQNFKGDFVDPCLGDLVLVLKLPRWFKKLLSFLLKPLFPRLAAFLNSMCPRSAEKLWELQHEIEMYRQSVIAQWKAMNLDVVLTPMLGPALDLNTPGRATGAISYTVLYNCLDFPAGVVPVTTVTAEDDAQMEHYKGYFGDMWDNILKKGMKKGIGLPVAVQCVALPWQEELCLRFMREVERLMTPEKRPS

| IC50 (FAAH; competitive ABPP (Table 7)) [nM] | SMILES | other results |
| --- | --- | --- |
| > 10000 | O=C(OC(C(F)(F)F)C(F)(F)F)N1CCN(Cc2ccc(Cl)cc2N2CCCC2)CC1 [Example 9z, 1,1,1,3,3,3-hexafluoropropan-2-yl 4-(4-chloro-2-(pyrrolidin-1-yl)benzyl)piperazine-1-carboxylate] |  |
| > 10000 | Cn1cc(CN2CCN(C(=O)OC(C(F)(F)F)C(F)(F)F)CC2)c(-c2ccccc2Cl)n1 [l0g, 1,1,1,3,3,3-hexafluoropropan-2-yl 4-[[3-(2-chlorophenyl)-1-methyl-1H-pyrazol-4-yl]methyl]piperazine-1-carboxylate] |  |
| > 250 | O=C(OC(C(F)(F)F)C(F)(F)F)N1CCN(Cc2ccc(Br)cc2N2CCCC2)CC1 [Example 9x, 1,1,1,3,3,3-hexafluoropropan-2-yl 4-(4-bromo-2-(pyrrolidin-1-yl)benzyl)piperazine-1-carboxylate] |  |
| > 6250 | Cc1nn(-c2ccccc2)cc1CN1CCN(C(=O)OC(C(F)(F)F)C(F)(F)F)CC1 [Example 10c, 1,1,1,3,3,3-hexafluoropropan-2-yl 4-((3-methyl-1-phenyl-1H-pyrazol-4-yl)methyl)piperazine-1-carboxylate] |  |
| > 6250 | O=C(OC(C(F)(F)F)C(F)(F)F)N1CCN(Cc2ccc(Cl)cc2N2CCOCC2)CC1 [Example 9t, 1,1,1,3,3,3-hexafluoropropan-2-yl 4-(4-chloro-2-morpholinobenzyl)piperazine-1-carboxylate] |  |
| > 10000 | Cn1cc(CN2CCN(C(=O)OC(C(F)(F)F)C(F)(F)F)CC2)c(-c2ccccc2)n1 [Example 10e, 1,1,1,3,3,3-hexafluoropropan-2-yl 4-((1-methyl-3-phenyl-1H-pyrazol-4-yl)methyl)piperazine-1-carboxylate] |  |
| > 10000 | Cn1nc(-c2ccccc2)cc1CN1CCN(C(=O)OC(C(F)(F)F)C(F)(F)F)CC1 [Example 10d, 1,1,1,3,3,3-hexafluoropropan-2-yl 4-((1-methyl-3-phenyl-1H-pyrazol-5-yl)methyl)piperazine-1-carboxylate] |  |

The next lines start with the molecule.

| SMILES | IC50 (FAAH; competitive ABPP (Table 7)) [nM] | other results |
| --- | --- | --- |
| O=C(OC(C(F)(F)F)C(F)(F)F)N1CCN(C(c2ccc(Cl)cc2)c2ccc(Cl)cc2)CC1 [Example 2b, 1,1,1,3,3,3-hexafluoropropan-2-yl 4-(bis(4-chlorophenyl)methyl)-piperazine-1-carboxylate] |  | IC50 (FAAH; competitive ABPP): > 10000 nM |
| Cc1cc(N2CCOCC2)ccc1CN1CCN(C(=O)OC(C(F)(F)F)C(F)(F)F)CC1 [Example 9p, 1,1,1,3,3,3-hexafluoropropan-2-yl 4-(2-methyl-4-morpholinobenzyl)piperazine-1-carboxylate] |  | IC50 (MAGL): < 100 nM |
| O=C(OC(C(F)(F)F)C(F)(F)F)N1CCN(Cc2cccc(Cl)c2N2CCOCC2)CC1 [Example 9ad, 1,1,1,3,3,3-hexafluoropropan-2-yl 4-[[3-chloro-2-(morpholin-4-yl)phenyl]methyl]piperazine-1-carboxylate] | > 10000 |  |
| O=C(OC(C(F)(F)F)C(F)(F)F)N1CCN(Cc2ccc(C(F)(F)F)cc2N2CCOCC2)CC1 [Example 9c, 1,1,1,3,3,3-hexafluoropropan-2-yl 4-[[2-(morpholin-4-yl)-4-(trifluoromethyl)phenyl]methyl]piperazine-1-carboxylate] | > 10000 |  |
| O=C(OC(C(F)(F)F)C(F)(F)F)N1CCN(C(c2cccnc2)c2cccnc2)CC1 [Example 2l, 1,1,1,3,3,3-hexafluoropropan-2-yl 4-(di(pyridin-3-yl)methyl)piperazine-1-carboxylate] |  | IC50 (FAAH; competitive ABPP): > 10000 nM |
| O=C(OC(C(F)(F)F)C(F)(F)F)N1CCN(Cc2ccc(C(F)(F)F)cc2N2CCCC2)CC1 [Example 9aq, 1,1,1,3,3,3-hexafluoropropan-2-yl 4-(2-(pyrrolidin-1-yl)-4-(trifluoromethyl)benzyl)piperazine-1-carboxylate] | > 10000 |  |
| O=C(OC(C(F)(F)F)C(F)(F)F)N1CCN(C(c2cocn2)c2cocn2)CC1 [Example 2i, 1,1,1,3,3,3-hexafluoropropan-2-yl 4-(bis(oxazol-4-yl)methyl)piperazine-1-carboxylate] |  | IC50 (FAAH; competitive ABPP): > 6000 nM |
